In patent US9120727B2, “Process for the preparation of pleuromutilins” (NABRIVA THERAPEUTICS AG, priority 2010, dated 2015):
Where a name gives a salt, the structure may show the parent alone.

Tests used:
[1] = tested on: Staphylococcus aureus ATCC49951; assay: Minimum inhibitory concentration (MIC) in accordance with CLSI recommendations; assay type: cell-based
Procedure: (§1) The antimicrobial, e.g. antibacterial activity of 14-O-{[(4-amino-2-hydroxy-cyclohexyl)-sulfanyl]-acetyl}-mutilins was outlined in WO2008/113089. […] The minimum inhibitory concentration (MIC) was determined in accordance with CLSI recommendations.

[2] = tested on: Streptococcus pneumoniae ATCC49619; assay: as above; assay type: cell-based
Procedure: as §1

[3] = Comparative stability of crystalline and amorphous salts of compound I, stored at 60° C., HPLC; assay type: physicochemical
Text: In the following TABLE 4 comparative stability data of the corresponding crystalline and amorphous salts of compound I are shown. [table]

[4] = Solubility of crystalline salts in water, aqueous vehicles and biorelevant media; assay type: physicochemical; details: 0.9% NaCl solution, FaSSIF and FeSSIF
[5] = 28 d at 60° C., * sample did not fully dissolve in water, suspension analyzed

| Structure (SMILES) | MIC [1] | MIC [2] | Area % of 14-O-{[(1R,2R,4R)-4-amino-2-hydroxy-cyclohexylsulfanyl]-acetyl}-mutilin (compound I) by HPLC stored at 60° C. [3, 5] | Area % of 14-O-{[(1R,2R,4R)-4-amino-2-hydroxy-cyclohexylsulfanyl]-acetyl}-mutilin (compound I) by HPLC stored at 60° C. ([3]; Initial) | solubility [4] |
| --- | --- | --- | --- | --- | --- |
| C=C[C@]1(C)C[C@@H](OC(=O)CS[C@@H]2CC[C@@H](N)C[C@H]2O)[C@]2(C)C(C)CC[C@]3(CCC(=O)[C@H]32)[C@@H](C)[C@@H]1O (stereo partly drawn) [compound of formula I, 14-O-{[(1R,2R,4R)-4-amino-2-hydroxy-cyclohexylsulfanyl]-acetyl}-mutilin] | < 0.4 µg/mL | < 0.4 µg/mL | – | – | – |
| C=C[C@]1(C)C[C@@H](OC(=O)CS[C@@H]2CC[C@@H](N)C[C@H]2O)[C@]2(C)C(C)CC[C@]3(CCC(=O)[C@H]32)[C@@H](C)[C@@H]1O (stereo partly drawn) [L-Lactate crystalline, 14-O-{[(1R,2R,4R)-4-Amino-2-hydroxy-cyclohexylsulfanyl]-acetyl}-mutilin L-lactate, crystalline Form 1] | – | – | 98.3 Area % | 99.4 Area % | surprisingly high |
| C=C[C@]1(C)C[C@@H](OC(=O)CS[C@@H]2CC[C@@H](N)C[C@H]2O)[C@]2(C)C(C)CC[C@]3(CCC(=O)[C@H]32)[C@@H](C)[C@@H]1O (stereo partly drawn) [Acetate (Form B) crystalline, 14-O-{[(1R,2R,4R)-4-Amino-2-hydroxy-cyclohexyl-sulfanyl]-acetyl}-mutilin acetate, crystalline Form B] | – | – | 98.9 Area % | 99.5 Area % | – |
| C=C[C@]1(C)C[C@@H](OC(=O)CS[C@@H]2CC[C@@H](N)C[C@H]2O)[C@]2(C)C(C)CC[C@]3(CCC(=O)[C@H]32)[C@@H](C)[C@@H]1O (stereo partly drawn) [Hydrogen maleate crystalline, 14-O-{[(1R,2R,4R)-4-Amino-2-hydroxy-cyclohexylsulfanyl]-acetyl}-mutilin hydrogenmaleate, crystalline Form 1] | – | – | – | – | surprisingly high |
